{
  "source": "patent US6340783B1",
  "about": "“Rodent models of human amyloidoses” (University of Washington, priority 1992, dated 2002)",
  "key": {"[1]": {"molecular_target": "T1, Beta-Amyloid Protein (1-28) (Homo sapiens, UniProt P05067)", "T1 construct": "residues 1-28 of BAP or residues 597-624 of BAPP; purchased Bachem Inc., Torrance, Calif; host or cells: synthetic peptide", "T1 sequence (P05067 672-699 limits assumed)": "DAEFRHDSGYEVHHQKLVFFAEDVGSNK", "assay": "Competitive inhibition of 125I-labeled HSPG binding to BAP (1-28) affinity column", "procedure": "^125I-labeled HSPGs in the presence of increasing concentrations of unlabeled GAGs, or large low density HSPG (from EHS sarcoma) were applied to an Affi-gel 10 column containing BAP (residues 1-28). After nonbound PGs were eluted from the column using TBS+0.1% TX-100, bound PGs were eluted with a step gradient using 15 ml of 1M MgCl2 in TBS+0.1% TX-100, followed by 15 ml of 4M MgCl2 in TBS+0.1% TX-100, and then 10 ml of 8M urea buffer containing 3M NaCl. […] Bars indicate standard error of the mean.\nIn order to test the specificity of HSPG binding to BAP (1-28), competitive inhibition experiments were also performed. 125-I labeled HSPGs (100,000-200,000 dpm) were mixed with (a) HSPG from EHS sarcoma (Mr approximately 700,000) (Kato et al., 1988) (gift of Dr. Koji Kimata, Aichi, Japan), (b) heparin from porcine intestinal mucosa (Mr˜11,000; Sigma, St. Louis, Mo.), (c) chondroitin-6-sulfate from shark cartilage (Mr˜59,000; Sigma, St. Louis, Mo.), or (d) […] dextran sulfate (Mr˜110,000; Pharmacia Fine Chemicals, Uppsala, Sweden). The samples were incubated on a rotator for 2 hours at room temperature and then applied to the BAP (1-28) column. Columns were run and eluted with step gradients (1 to 4 M MgCl2) as described above.\nPurified iodinated HSPGs were combined with various concentrations of unlabeled competing ligands and applied to a BAP (1-28) affinity column (FIG. 10)."}, "[2]": {"system": "β/A4 amyloid deposition in rat hippocampus", "assay": "Rat infusion model of β/A4 amyloid deposition in hippocampus", "assay_type": "in vivo", "procedure": "For infusion studies, all reagents were dissolved and stored at 4° C. the night prior to surgery. β/A4 (residues 1-40; Bachem California Inc., Torrance, Calif.; Lot #ZJ209) was initially dissolved at 10 mg/ml in 35% acetonitrile (stock solution), with the final diluted concentration of acetonitrile less than 3% in animals infused with β/A4 or its vehicle (see below). Perlecan (basement membrane derived HSPG) and heparan sulfate (HS) GAGs were isolated and purified from the mouse Engelbreth-Holm-Swarm (EHS) sarcoma as described (6), and dissolved in sterile saline at 5 mg/ml and 10 mg/ml, respectively. Male Sprague-Dawley rats (250-300 gms; 3 months old; Harlan Sprague Dawley) were implanted with Alzet 2002 minipumps delivering the following solutions directly into hippocampus at a flow rate of 0.5 μl per hour for one week (7); 1) β/A4 (7.5 μl stock) & HSPG (92.5 μl stock), 6 animals; 2) β/A4 (7.5 μl stock) & HS GAGs (92.5 μl stock), 4 animals; 3) β/A4 (7.5 μl stock) & saline (92.5 μl), 6 animals; 4) HSPG only (100 μl), 4 animals; 5) HS GAGs only (100 μl), 4 animals; 6) saline only (100 μl), 4 animals; and 7) 35% acetonitrile (β/A4 vehicle, 7.5 μl) & saline (92.5 μl), 2 animals. High concentrations of these reagents were chosen to maximize possible effects following infusion into brain. The approximate quantity of β/A4 peptide infused into brain by the end of 1 week in each animal having β/A4 (1-40) as part of the infusate was 75 μg, at least 5 times the amount previously reported in rat models employing single acute injections (8, 9). After one week of continuous infusion, rats were sacrificed by overdose with pentobarbital and perfused with 100 ml of saline followed by 150 ml of 4% paraformaldehyde buffered with phosphate (pH 7.4), postfixed for 24 hours and transferred to phosphate buffered saline for paraffin embedding. Once embedded, consecutive 6 μm serial sections were cut and placed on poly-D-lysine coated slides. Two additional animals in the β/A4 only and the β/A4 & HSPG groups were processed for electron microscopy as described (10).\nDetection of infused macromolecules was monitored using two polyclonal antibodies against synthetic β/A4 (either against β/A4 1-28 or 1-40) (13), and two monoclonal antibodies recognizing either HS GAGs (HK-249) (14) or the core protein of perlecan (HK-102) (15). Additionally, two polyclonal antibodies recognizing the core protein of perlecan (17) assessed effects of infused macromolecules (16) on endogenous brain HSPGs. Detection of other AD-like markers included Alz-50 antibody immunostaining (18), and silver staining by the modified Bielschowsky method (19). Possible inflammation-associated amyloid protein involvement was monitored by AA amyloid protein immunostaining (20). The presence of other cell types such as astrocytes was detected by immunostaining with a polyclonal antibody to glial fibrillary acidic protein (GFAP) (1:10,000 dilution; Dako), whereas microglia/macrophage infiltration was detected using a rat monoclonal antibody known as ED1 (1:2500 dilution; Serotec). For all immunostaining, negative controls consisted of using Tris-buffered saline (TBS) instead of the primary antibody, and/or preabsorption experiments using the primary antibody in the presence of excess antigen. In order to quantify possible staining and/or immunostaining differences between the various infusion groups, slides were scored blindly by two independent investigators as described (21) (Table 1; see FIG. 35).\n7. Rats were anesthetized with pentobarbital (50 mg/kg) and a 27 gauge steel cannula was stereotactically implanted into the hippocampus using bregma as reference point (AP −4.8; ML 3.5; DV 4), and secured to the skull by machine screws and dental acrylic. The cannula was connected via a 15 cm coil of vinyl tubing to a model 2002 osmotic minipump (Alzet Inc.) placed subcutaneously beneath the shoulder blades. […]"}, "fibronectin": {"molecular_target": "fibronectin (Homo sapiens, UniProt P02751)", "sequence (P02751 32-2477, species assumed)": "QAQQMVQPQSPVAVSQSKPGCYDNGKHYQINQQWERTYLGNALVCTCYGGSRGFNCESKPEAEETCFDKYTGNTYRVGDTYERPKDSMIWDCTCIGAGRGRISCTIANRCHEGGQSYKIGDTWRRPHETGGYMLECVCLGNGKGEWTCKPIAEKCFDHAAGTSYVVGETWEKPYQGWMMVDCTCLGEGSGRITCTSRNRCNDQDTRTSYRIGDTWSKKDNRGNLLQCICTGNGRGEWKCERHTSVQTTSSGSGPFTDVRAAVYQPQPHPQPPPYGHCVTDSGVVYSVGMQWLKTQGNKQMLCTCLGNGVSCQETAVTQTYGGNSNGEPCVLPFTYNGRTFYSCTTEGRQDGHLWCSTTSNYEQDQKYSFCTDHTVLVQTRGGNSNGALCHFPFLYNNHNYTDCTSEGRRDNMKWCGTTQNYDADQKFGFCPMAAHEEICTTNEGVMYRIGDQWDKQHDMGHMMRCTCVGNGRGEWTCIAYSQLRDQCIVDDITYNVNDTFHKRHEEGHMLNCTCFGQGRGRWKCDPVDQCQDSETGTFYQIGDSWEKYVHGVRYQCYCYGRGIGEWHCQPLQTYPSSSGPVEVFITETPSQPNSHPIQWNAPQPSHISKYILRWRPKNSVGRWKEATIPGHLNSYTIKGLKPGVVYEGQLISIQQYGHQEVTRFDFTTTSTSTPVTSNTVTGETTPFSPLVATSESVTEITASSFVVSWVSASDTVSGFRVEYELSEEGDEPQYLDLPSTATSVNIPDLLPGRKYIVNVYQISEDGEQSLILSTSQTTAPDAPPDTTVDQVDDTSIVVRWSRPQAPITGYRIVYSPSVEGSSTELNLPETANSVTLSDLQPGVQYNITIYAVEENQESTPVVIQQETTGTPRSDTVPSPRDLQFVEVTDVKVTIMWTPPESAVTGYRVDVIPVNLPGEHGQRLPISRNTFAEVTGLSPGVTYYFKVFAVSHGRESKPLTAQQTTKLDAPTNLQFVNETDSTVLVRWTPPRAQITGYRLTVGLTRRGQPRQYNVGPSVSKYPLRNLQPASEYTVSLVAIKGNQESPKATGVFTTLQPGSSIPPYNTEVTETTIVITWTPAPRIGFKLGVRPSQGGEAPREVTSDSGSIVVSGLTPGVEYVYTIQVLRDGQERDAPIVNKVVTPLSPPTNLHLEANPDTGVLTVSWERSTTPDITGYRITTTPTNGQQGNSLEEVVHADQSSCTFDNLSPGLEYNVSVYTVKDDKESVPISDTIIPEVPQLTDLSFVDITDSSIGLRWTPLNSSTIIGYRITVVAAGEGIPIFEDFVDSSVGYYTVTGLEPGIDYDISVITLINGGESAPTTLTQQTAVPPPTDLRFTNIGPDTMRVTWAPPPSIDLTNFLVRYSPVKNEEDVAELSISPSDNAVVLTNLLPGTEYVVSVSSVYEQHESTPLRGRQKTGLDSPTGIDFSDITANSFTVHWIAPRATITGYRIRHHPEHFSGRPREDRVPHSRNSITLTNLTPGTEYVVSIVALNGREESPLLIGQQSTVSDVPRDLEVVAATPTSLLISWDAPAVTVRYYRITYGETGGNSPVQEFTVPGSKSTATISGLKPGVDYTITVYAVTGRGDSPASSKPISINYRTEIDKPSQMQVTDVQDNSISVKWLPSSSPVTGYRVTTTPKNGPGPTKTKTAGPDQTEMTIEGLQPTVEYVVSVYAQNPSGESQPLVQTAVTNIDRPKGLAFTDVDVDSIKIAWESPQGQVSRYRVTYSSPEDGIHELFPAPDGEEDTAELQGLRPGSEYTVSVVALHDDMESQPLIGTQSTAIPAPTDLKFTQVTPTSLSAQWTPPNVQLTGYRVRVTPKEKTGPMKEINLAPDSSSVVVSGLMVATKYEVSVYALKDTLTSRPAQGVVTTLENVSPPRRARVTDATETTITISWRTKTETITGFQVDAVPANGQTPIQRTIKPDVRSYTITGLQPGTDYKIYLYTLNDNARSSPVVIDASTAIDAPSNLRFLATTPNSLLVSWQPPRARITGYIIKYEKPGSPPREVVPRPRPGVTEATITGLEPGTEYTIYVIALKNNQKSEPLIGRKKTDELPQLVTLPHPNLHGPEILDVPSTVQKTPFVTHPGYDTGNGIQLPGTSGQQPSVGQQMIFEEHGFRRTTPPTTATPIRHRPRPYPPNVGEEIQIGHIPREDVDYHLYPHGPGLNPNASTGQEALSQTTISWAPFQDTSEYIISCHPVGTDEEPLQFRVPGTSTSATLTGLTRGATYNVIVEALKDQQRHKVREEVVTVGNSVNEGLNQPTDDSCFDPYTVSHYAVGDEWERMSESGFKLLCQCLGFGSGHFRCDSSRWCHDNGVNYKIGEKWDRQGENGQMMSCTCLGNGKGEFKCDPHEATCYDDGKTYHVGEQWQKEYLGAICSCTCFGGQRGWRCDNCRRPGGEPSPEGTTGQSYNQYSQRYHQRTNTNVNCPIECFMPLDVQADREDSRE", "details": "via the core protein; cited from earlier work"}, "BAP (residues 1-28)": {"molecular_target": "T2, BAP (residues 1-28) (Homo sapiens, UniProt P05067)", "T2 construct": "residues 1-28 of BAP or residues 597-624 of BAPP; purchased Bachem Inc., Torrance, Calif; host or cells: synthetic peptide", "assay": "Affinity column chromatography of labeled proteoglycans on BAP (1-28) Affi-gel 10 column", "assay_type": "binding", "details": "after heparitinase/heparinase digestion", "procedure": "Approximately 500,000 dpm of ^35S-sulfate labeled PGs isolated from the culture media of ECs were applied to Affi-gel 10 affinity columns containing approximately 0.45 mg of 1) residues 1-28 of BAP, 2) residues 410-429, a region of BAPP present in the extracellular domain, or 3) bovine serum albumin. The labeled PGs were left on the column for 1 hour, after which non-bound radiolabelled PGs were eluted with 25 ml (50 0.5 ml fractions) of TBS+0.1% TX-100 and collected on a fraction collector. Bound PGs were then eluted from the column with 15 mls of 4M MgCl2 in TBS+0.1% TX-100.\n0.5 mg or 1.0 mg of ligands consisting of 1) BAP (1-28) (Bachem Inc., Torrance, Calif.), 2) a peptide corresponding to residues 410-429 of the BAPP (gift of Dr. Dennis Selkoe, Boston, U.S.A.) or 3) bovine serum albumin (BSA fraction V, Boehringer, Mannheim Biochemical) were dissolved initially in 400 μl of double distilled water to which was added an equal volume of 0.2 M HEPES buffer (pH 7.5) containing 160 mM calcium chloride. The ligand solutions were added to 0.8-1.0 ml of Affi-gel 10 (Biorad, Richmond, Calif.) and coupling was allowed to proceed for 4 hours at 4° C., after which 1/10 volume of IM ethanolamine (pH 8.0) was added and incubation continued for an additional 1-2 hours to block remaining unreacted ester groups. Gel coupled ligand was then transferred to Biorad Econo-columns and washed with TBS in 0.1% Triton-X 100. To assess the amount of bound ligand, soluble (nonbound) protein remaining in the wash buffer was assayed. The affinity columns coupled approximately 90% of ligand initially applied (i.e. 0.45 mg or 0.90 mg).\n^35S-sulfate labeled PGs isolated from the culture media (360,000 dpm) of ECs and SMCs were applied to Affi-gel 10 columns containing 1) BAP (residues 1-28), 2) BAPP (residues 410-429) or 3) Bovine serum albumin. The labeled PGs were allowed to interact with the affinity gel for 1 hour (preliminary experiments indicated maximum binding efficiency at 1 hour) and non-bound radiolabelled PGs were eluted with 25 ml of TBS+0.1% Triton X-100 (TBS-TX 100). Bound PGs were eluted with either a single-step gradient using 15 mls of 4M MgCl2 in TBS-TX 100 or a linear gradient of 0 to 4M MgCl2 in TBS-TX 100. In some experiments, columns were further eluted with 15 ml of 8M urea in 50 mM Tris-HCl (pH 7.5), with 0.5% Triton X-100 and 3M NaCl. The radioactivity per fraction was determined by scintillation counting. Most experiments were repeated a minimum of three times. Recoveries of applied radioactivity from the affinity columns ranged from 80-95%."}, "[3]": {"system": "HSPGs in AA amyloidotic mouse spleen", "assay": "In situ binding of BAP (1-28) to AA amyloidotic tissue sections", "text": "Six micron sections of paraffin-embedded AA amyloidotic spleen and liver (gift of Dr. Robert Kisilevsky, Kingston, Canada) were used for the in situ binding studies. AA amyloid was induced in CBA/J female mice (6-8 weeks old) using amyloid enhancing factor and silver nitrate, as previously described (Axelrad et al., 1982; Snow and Kisilevsky, 1985).\nImmunostaining of tissue sections was accomplished using the avidin-biotin-immunoperoxidase method, employing the appropriate biotin-labeled secondary antibodies, followed by incubation with avidin-conjugated horseradish peroxidase complex (Vector Labs, Burlingame, Calif.). Peroxidase activity was produced by treatment with 3,3-diaminobenzidine as previously described (Snow et al., 1988a). For immunocytochemical staining, the primary antibody was used initially through a series of dilutions to obtain the best specificity with the least background staining. Only results using the optimal dilutions of primary antibody are reported.\nParaffin sections of mouse AA amyloidotic liver or spleen (obtained 4 days after initial AEF+ silver nitrate induction) were treated overnight at 4° C. with a 0.3 mg/ml or 0.5 mg/ml solution of a peptide corresponding to the extracellular domain of BAP (residues 1-28 of BAP or residues 597-624 of BAPP) (Bachem Inc., Torrance, Calif.) in Tris-buffered saline (TBS). After 18 hours, non-bound BAP was removed by extensive washing in 4 changes of TBS. Bound-BAP was then detected by immunostaining tissue sections with either of two BAP polyclonal antibodies as described above. […] These treatments included: 1) 0.50 units/ml of chondroitin ABC lyase (Seikagaku Kogyo Co. Ltd., through ICN Biomedicals) in 0.1 M enriched Tris-acetate buffer (pH 8.0) at 37° C. for 6 hours (Saitoh et al., 1968), 2) a solution of 20% nitrous acid: 33% acetic acid (1:1, volume/volume) incubated at room temperature for 6 hours (Snow et al., 1987) and 3) 10 units/ml of heparinase I and heparitinase I (Sigma, St. Louis, Mo.) in 0.20 M Tris-HCl buffer (pH 7.0) with 20 mM calcium acetate added, at 37° C. for 6 hours. […]"}},
  "data": [
    {"substance": "heparin [reference compound]", "values": [
      {"measurement": "IC50", "setting": "[1]; unlabeled competing ligand, BAP (1-28) affinity column, read-out: concentration at 50% inhibition of 125I-HSPG binding to BAP", "result": 10, "unit": "µM"}
    ]},
    {"substance": "β/A4 (1-40): synthetic β/A4 residues 1-40; Bachem California Inc.", "values": [
      {"measurement": "HSPG core protein immunostaining score versus groups where HSPG was part of the infusate", "setting": "[2]; 1-week infusion groups", "result": "not significantly different"},
      {"measurement": "scoring of congo red staining", "setting": "[2]; 1-week infusion groups", "result": "significant increase"},
      {"measurement": "scoring of thioflavin S fluorescence", "setting": "[2]; 1-week infusion groups", "result": "significant increase"},
      {"measurement": "animals demonstrating deposition of congophilic amyloid material in brain", "setting": "[2]; 1 week continuous infusion into hippocampus", "result": "4 of 6"},
      {"measurement": "animals with (endogenous) HSPG immunostaining", "setting": "[2]; 1 week, HSPG not part of the infusate", "result": "four"}
    ]},
    {"substance": "high Mr HSPG of human lung fibroblasts: high Mr HSPG of human lung fibroblasts (Heremans et al. 1990)", "values": [
      {"measurement": "Kd", "setting": "fibronectin", "result": 0.002, "unit": "µM"}
    ]},
    {"substance": "heparitinase-digested ^125I-labeled HSPGs: 125I-labeled HSPG digested with a heparitinase/heparinase mixture (core protein)", "values": [
      {"measurement": "HSPGs still able to bind to the BAP column in comparison to undigested controls", "setting": "BAP (residues 1-28)", "result": 61, "unit": "%"}
    ]},
    {"substance": "synthetic BAP (residues 1-28): peptide corresponding to the extracellular domain of BAP (residues 1-28 of BAP or 597-624 of BAPP), Bachem", "values": [
      {"measurement": "BAP immunoreactivity at sites of HSPG accumulation after peptide pretreatment", "setting": "[3]; sections pretreated overnight at 4° C. with peptide", "result": "strong positive immunoreactivity"},
      {"measurement": "change in BAP immunostaining", "setting": "[3]; sections pretreated with acetic acid or chondroitin ABC lyase", "result": "little to no decrease"},
      {"measurement": "change in BAP immunoreactivity", "setting": "[3]; sections pretreated with nitrous acid or heparitinase/heparinase", "result": "some loss"}
    ]},
    {"substance": "chondroitin-6-sulfate [reference compound]", "values": [
      {"measurement": "inhibition of binding of 125I-labeled HSPGs to the BAP (in words)", "setting": "[1]", "result": "not"},
      {"measurement": "competition for binding of 125I-labeled HSPG to BAP", "setting": "[1]; at all concentrations except 100 uM", "result": "unable to compete"}
    ]}
  ]
}
